# Patent US12582687B2, “Composition based on Crocus sativus and Cannabis sativa” (priority 2021, dated 2026)
# Like-named read-outs stand apart in the source and are kept apart here.
# What was measured:
# [1] = target: acetylcholinesterase (AchE) (Homo sapiens, UniProt P22303); assay: Acetylcholinesterase activity, in vitro colorimetric Ellman method; assay type: biochemical; details: AchE 0.22 U/ml, ATCl 1 mM, 20 min
# Excerpt: The aim of this assay is to compare acetylcholinesterase (AchE) activity in the presence of the composition according to the invention, with a safranal/cannabidiol (CBD) ratio of 0.03, with acetylcholinesterase activity in the presence of safranal or CBD alone.
# AchE activity was monitored and measured in vitro by colorimetric reaction using the Ellman method. Acetylthiocholine (ATCl) is degraded to thiocholine and acetic acid by AChE. The thiocholine then reacts with the dithiobisnitrobenzoic ion (DTNB) and the resulting ion (TNB) gives a yellow coloration. In a 96-well plate, the following amounts were deposited in each well: 55 μl buffer (Tris-HCl 50 mM), 75 μl DTNB (5 mM), 25 μl AchE (0.22 U/ml), 25 μl test sample (buffer or safranal (1.2 μg/ml), or CBD (40 μg/ml), or safranal (1.2 μg/ml)+CBD (40 μg/ml).
# At the last moment, 25 μL of ATCl (1 mM) was added to initiate the reaction. The absorbance was then monitored at 405 nM for 20 min. For each well, the absorbance values over time (Ax) are normalized relative to the first absorbance measurement (AT0) according to the following formula: Normalized absorbance (An)=Ax−AT0. The percentage of AchE inhibition was determined by comparing the slopes of the curves (in the linear part) against the control according to the following equation [Math 1]. […]
# [2] = test system: anxiety symptoms in healthy adults under stress; details: CBD alone without THC, cited from earlier work
# Chain of acetylcholinesterase (AchE) (P22303 32-614, species assumed): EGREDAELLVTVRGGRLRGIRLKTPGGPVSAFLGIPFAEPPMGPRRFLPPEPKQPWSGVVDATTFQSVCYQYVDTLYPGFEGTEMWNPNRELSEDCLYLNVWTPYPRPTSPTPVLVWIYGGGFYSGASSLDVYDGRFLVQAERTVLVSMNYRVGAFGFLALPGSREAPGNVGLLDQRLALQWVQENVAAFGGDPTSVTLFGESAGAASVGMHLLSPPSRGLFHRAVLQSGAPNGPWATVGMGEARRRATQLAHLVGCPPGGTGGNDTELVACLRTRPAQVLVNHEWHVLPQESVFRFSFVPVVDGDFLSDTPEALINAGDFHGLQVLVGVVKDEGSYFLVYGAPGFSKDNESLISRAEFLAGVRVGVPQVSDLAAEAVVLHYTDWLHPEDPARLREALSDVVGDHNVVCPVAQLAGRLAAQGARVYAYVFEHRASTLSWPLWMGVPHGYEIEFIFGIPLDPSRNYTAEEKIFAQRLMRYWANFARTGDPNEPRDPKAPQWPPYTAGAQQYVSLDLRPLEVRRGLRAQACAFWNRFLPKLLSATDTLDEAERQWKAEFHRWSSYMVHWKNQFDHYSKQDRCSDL
Compound,"inhibition at 40 µg/mL ([1]; CBD 40 μg/ml test sample, read-out: decrease in AchE activity (percentage of AchE inhibition relative to control)) [%]",effect on anxiety symptoms ([2]; dose 300 mg),effect on anxiety symptoms ([2]; higher dose 900 mg),effect on anxiety symptoms ([2]; lower dose 100 mg),AchE activity compared with the control ([1]; safranal 1.2 μg/ml test sample)
"C=C(C)[C@@H]1CCC(C)=C[C@H]1c1c(O)cc(CCCCC)cc1O [CBD, 2-[(1R,6R)-6-isopropenyl-3-methylcyclohex-2-en-1-yl]-5-pentylbenzene-1,3-diol]",69.8,reducing anxiety symptoms,no effect,no effect,–
CC1=C(C=O)C(C)(C)CC=C1 [safranal],–,–,–,–,unchanged
